{"source": "paper PMC10088252", "conditions": "300 mg QD (n=12)", "protocol": "Dose adjustment was allowed according to the severity of toxicity [Supplementary Table 1].\nThe primary endpoints were safety, ORR and DCR assessed by investigators. […] AEs referred to treatment-emergent adverse events (TEAEs) and TRAEs were assessed by investigators. Serious adverse events (SAEs) referred to AEs meeting at least one of the following criteria: event leading to death; life-threatening event; event requiring hospitalization or extension of hospital stay; event leading to persistent or evident disability or dysfunction; event leading to congenital malformation or birth defect or event which might lead to injury or that need medical treatment to avoid the above mentioned important medical events."}
{"smiles": "O=C(Nc1ccc(Oc2ccnc3c2CCN3)c(F)c1)c1c[nH]cc(-c2ccc(F)cc2)c1=O", "values": [{"measurement": "TRAE Accessory nerve disorder, any grade", "result": "1 (8.3) n (%)"}, {"measurement": "TRAE Accessory nerve disorder, grade 3-4", "result": "0 n (%)"}, {"measurement": "TRAE Activated partial thromboplastin time prolonged, any grade", "result": "1 (8.3) n (%)"}, {"measurement": "TRAE Activated partial thromboplastin time prolonged, grade 3-4", "result": "0 n (%)"}, {"measurement": "TRAE Anaemia, any grade", "result": "0 n (%)"}, {"measurement": "TRAE Anaemia, grade 3-4", "result": "0 n (%)"}, {"measurement": "TRAE Anaesthesia oral, any grade", "result": "0 n (%)"}, {"measurement": "TRAE Anaesthesia oral, grade 3-4", "result": "0 n (%)"}, {"measurement": "TRAE Arrhythmia, any grade", "result": "0 n (%)"}, {"measurement": "TRAE Arrhythmia, grade 3-4", "result": "0 n (%)"}, {"measurement": "TRAE Arthralgia, any grade", "result": "0 n (%)"}, {"measurement": "TRAE Arthralgia, grade 3-4", "result": "0 n (%)"}, {"measurement": "TRAE Asthenia, any grade", "result": "0 n (%)"}, {"measurement": "TRAE Asthenia, grade 3-4", "result": "0 n (%)"}, {"measurement": "TRAE Blister, any grade", "result": "0 n (%)"}, {"measurement": "TRAE Blister, grade 3-4", "result": "0 n (%)"}, {"measurement": "TRAE Chest discomfort, any grade", "result": "1 (8.3) n (%)"}, {"measurement": "TRAE Chest discomfort, grade 3-4", "result": "0 n (%)"}, {"measurement": "TRAE Chronic kidney disease, any grade", "result": "0 n (%)"}, {"measurement": "TRAE Chronic kidney disease, grade 3-4", "result": "0 n (%)"}, {"measurement": "TRAE Constipation, any grade", "result": "2 (16.7) n (%)"}, {"measurement": "TRAE Constipation, grade 3-4", "result": "0 n (%)"}, {"measurement": "TRAE Cough, any grade", "result": "0 n (%)"}, {"measurement": "TRAE Cough, grade 3-4", "result": "0 n (%)"}, {"measurement": "TRAE Decreased Ccr, any grade", "result": "2 (16.7) n (%)"}, {"measurement": "TRAE Decreased Ccr, grade 3-4", "result": "0 n (%)"}, {"measurement": "TRAE Decreased appetite, any grade", "result": "2 (16.7) n (%)"}, {"measurement": "TRAE Decreased appetite, grade 3-4", "result": "0 n (%)"}, {"measurement": "TRAE Diarrhoea, any grade", "result": "1 (8.3) n (%)"}, {"measurement": "TRAE Diarrhoea, grade 3-4", "result": "0 n (%)"}, {"measurement": "TRAE Dizziness, any grade", "result": "1 (8.3) n (%)"}, {"measurement": "TRAE Dizziness, grade 3-4", "result": "0 n (%)"}, {"measurement": "TRAE Dry mouth, any grade", "result": "1 (8.3) n (%)"}, {"measurement": "TRAE Dry mouth, grade 3-4", "result": "0 n (%)"}, {"measurement": "TRAE Dysgeusia, any grade", "result": "1 (8.3) n (%)"}, {"measurement": "TRAE Dysgeusia, grade 3-4", "result": "0 n (%)"}, {"measurement": "TRAE Dyskinesia, any grade", "result": "0 n (%)"}, {"measurement": "TRAE Dyskinesia, grade 3-4", "result": "0 n (%)"}, {"measurement": "TRAE Dysphonia, any grade", "result": "0 n (%)"}, {"measurement": "TRAE Dysphonia, grade 3-4", "result": "0 n (%)"}, {"measurement": "TRAE Dyspnoea, any grade", "result": "0 n (%)"}, {"measurement": "TRAE Dyspnoea, grade 3-4", "result": "0 n (%)"}, {"measurement": "TRAE Electrocardiogram QT prolonged, any grade", "result": "1 (8.3) n (%)"}, {"measurement": "TRAE Electrocardiogram QT prolonged, grade 3-4", "result": "0 n (%)"}, {"measurement": "TRAE Elevated ALT, any grade", "result": "3 (25.0) n (%)"}, {"measurement": "TRAE Elevated ALT, grade 3-4", "result": "0 n (%)"}, {"measurement": "TRAE Elevated AST, any grade", "result": "2 (16.7) n (%)"}, {"measurement": "TRAE Elevated AST, grade 3-4", "result": "0 n (%)"}, {"measurement": "TRAE Elevated D dimer, any grade", "result": "0 n (%)"}, {"measurement": "TRAE Elevated D dimer, grade 3-4", "result": "0 n (%)"}, {"measurement": "TRAE Elevated GGT, any grade", "result": "0 n (%)"}, {"measurement": "TRAE Elevated GGT, grade 3-4", "result": "0 n (%)"}, {"measurement": "TRAE Elevated LDH, any grade", "result": "0 n (%)"}, {"measurement": "TRAE Elevated LDH, grade 3-4", "result": "0 n (%)"}, {"measurement": "TRAE Elevated alpha-HBDH, any grade", "result": "0 n (%)"}, {"measurement": "TRAE Elevated alpha-HBDH, grade 3-4", "result": "0 n (%)"}, {"measurement": "TRAE Elevated bilirubin, any grade", "result": "0 n (%)"}, {"measurement": "TRAE Elevated bilirubin, grade 3-4", "result": "0 n (%)"}, {"measurement": "TRAE Elevated blood creatinine, any grade", "result": "3 (25.0) n (%)"}, {"measurement": "TRAE Elevated blood creatinine, grade 3-4", "result": "0 n (%)"}, {"measurement": "TRAE Elevated creatine phosphokinase, any grade", "result": "0 n (%)"}, {"measurement": "TRAE Elevated creatine phosphokinase, grade 3-4", "result": "0 n (%)"}, {"measurement": "TRAE Elevated serum urea, any grade", "result": "1 (8.3) n (%)"}, {"measurement": "TRAE Elevated serum urea, grade 3-4", "result": "0 n (%)"}, {"measurement": "TRAE Elevated troponin, any grade", "result": "0 n (%)"}, {"measurement": "TRAE Elevated troponin, grade 3-4", "result": "0 n (%)"}, {"measurement": "TRAE Genital rash, any grade", "result": "0 n (%)"}, {"measurement": "TRAE Genital rash, grade 3-4", "result": "0 n (%)"}, {"measurement": "TRAE Haematuria, any grade", "result": "0 n (%)"}, {"measurement": "TRAE Haematuria, grade 3-4", "result": "0 n (%)"}, {"measurement": "TRAE Headache, any grade", "result": "1 (8.3) n (%)"}, {"measurement": "TRAE Headache, grade 3-4", "result": "0 n (%)"}, {"measurement": "TRAE Hyperhidrosis, any grade", "result": "0 n (%)"}, {"measurement": "TRAE Hyperhidrosis, grade 3-4", "result": "0 n (%)"}, {"measurement": "TRAE Hyperlipidaemia, any grade", "result": "0 n (%)"}, {"measurement": "TRAE Hyperlipidaemia, grade 3-4", "result": "0 n (%)"}, {"measurement": "TRAE Hypertension, any grade", "result": "1 (8.3) n (%)"}, {"measurement": "TRAE Hypertension, grade 3-4", "result": "0 n (%)"}, {"measurement": "TRAE Hypoaesthesia oral, any grade", "result": "0 n (%)"}, {"measurement": "TRAE Hypoaesthesia oral, grade 3-4", "result": "0 n (%)"}, {"measurement": "TRAE Hypocalcaemia, any grade", "result": "0 n (%)"}, {"measurement": "TRAE Hypocalcaemia, grade 3-4", "result": "0 n (%)"}, {"measurement": "TRAE Hypotension, any grade", "result": "1 (8.3) n (%)"}, {"measurement": "TRAE Hypotension, grade 3-4", "result": "0 n (%)"}]}
